Laboratory results: US20190388421A1, “NOVEL COMPOUNDS AND PHARMACEUTICAL COMPOSITIONS THEREOF FOR THE TREATMENT OF FIBROSIS” (Galapagos NV, priority 2016, published 2019)
pEC50, pIC50: −log10 of the molar value.

Columns and labels:
HFL-1 cells [1] = test: IL8 assay in the presence of Human Serum Albumin; assay type: cell-based; conditions: HFL1, S1P (5 μM) induced IL-8, HFL-1 cells, with 2% HSA, read-out: HSA IL8 EC50
Procedure: (§1) S1P is able to induce cytokines such as IL-8 in a process that is S1PR2 dependent (O'Sullivan et al, 2014; Bruennert et al, 2015). This assay is designed to test inhibitory activity of compounds on S1P induced IL-8 on HFL-1 cells, a human fetal lung fibroblast cell line.
To evaluate the influence of plasma protein binding of Sip as well as compound, the S1P induced IL-8 levels were evaluated in presence of 2% Human Serum Albumin (HSA, equivalent to 40% human serum). By adding 2% HSA, which affects both the activity of the compounds as well as the S1P potency, the physiological condition are reproduced and the shift in potency expected under in vivo serum conditions can be measured.
(§2) Human Fetal Lung cells (HFL-1) are seeded in 96 well plates in growth medium (F12K+10% heat inactivated FBS+1% Pen/strep). After overnight incubation at 37° C., 5% CO2 cells are refreshed with starvation medium with HSA (F12K+1% FBS+1% Pen/strep+1.95% HSA). On day three, compounds are added (10 point serial dilution, 30 μM highest concentration, 1/3 dilution, 0.3% DMSO final) and plates are incubated for 1 h at 37° C., 5% CO2. Subsequently S1P at 5 μM final concentration is added and plates are incubated for 16 to 24 h at 37° C., 5% CO2 after which the supernatant was collected. IL-8 levels in the supernatant are determined with the IL-8 ELISA of R&D systems.

S1PR2 = target: T1, S1PR2 (Homo sapiens, UniProt O95136); test: GTP-γS binding assay ([35S]GTPγS, S1P at EC80, S1PR2 membranes); assay type: biochemical; conditions: membranes from stable cell line over expressing S1PR2, read-out: S1PR2 EC
T1 construct: expressed in transfected cells
T1 sequence (O95136 whole entry): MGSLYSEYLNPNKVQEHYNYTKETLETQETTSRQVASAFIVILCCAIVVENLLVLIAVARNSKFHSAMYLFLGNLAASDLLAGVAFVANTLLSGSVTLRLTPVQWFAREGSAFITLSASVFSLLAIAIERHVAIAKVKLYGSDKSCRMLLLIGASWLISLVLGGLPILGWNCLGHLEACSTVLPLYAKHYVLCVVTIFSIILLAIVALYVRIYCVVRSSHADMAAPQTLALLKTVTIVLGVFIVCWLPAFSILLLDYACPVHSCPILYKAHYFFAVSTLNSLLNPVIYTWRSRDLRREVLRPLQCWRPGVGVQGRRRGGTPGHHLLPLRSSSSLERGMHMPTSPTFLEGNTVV
Procedure: The following assay can be used for determination of S1PR2 activation. The [^35S] GTPγS assay measures the level of G protein activation following agonist occupation of a GPCR, by determining the binding of the non-hydrolysable analog [^35S] GTPγS to Gα subunits.
The assay is performed in a 96 well plate where the following reagents are added. First 50 μL compound is added into the assay plate, followed by addition of 20 μL S1P at EC80 concentration (concentration which gives 80% of the activity of S1PR2). Then, 30 μL of a mixture consisting of membranes-GTPγS-SpA beads is added [mixture consists of 2.5 μg/well membranes derived from stable cell line over expressing S1PR2 (membranes are pre-incubated with 1 μM GDP for 15 min at 4° C.), 0.1 nM [35S]GTPγS (Perkin Elmer, NEG030) and 0.5 mg/well PVT-WGA SpA beads (Perkin Elmer, RPNQ0001)]. All components are diluted in assay buffer containing 20 mM Tris pH 7.5; 10 mM MgCl2; 100 mM NaCl; 0.1% BSA FAF; 50 ug/ml saponin. After an incubation for 4 h at room temperature, plates are centrifuged at 2000 rpm during 20 min. Plates are read on a Topcount reader (Perkin Elmer) immediately after centrifugation (readout time, 1 min/well).

HFL-1 cells [2] = test: IL8 assay (S1P induced IL-8 production); assay type: cell-based; conditions: Homo sapiens, HFL1; S1P (1 μM) induced IL-8, HFL-1 cells, without HSA
Procedure: as §1
as §2, with “medium without” for “medium with”, “FBS+1% Pen/strep).” for “FBS+1% Pen/strep+1.95% HSA).”, “concentration, ⅓” for “concentration, 1/3”, “for one hour” for “for 1 h”, “at 1” for “at 5”, “24 hours” for “24 h”

[3] = target: T2, human GPCR sphingosine 1-phosphate receptor 2 (S1PR2) (Homo sapiens, UniProt O95136); test: S1P2 antagonist assay (Ca2+ flux, S1P at EC80); assay type: cell-based; conditions: CHO-S1PR2 cells, highest concentration 20 μM
T2 construct: host or cells: CHO
T2 sequence (O95136 whole entry): as above
Procedure: Triggering of S1PR2 by administration of Sphingosine-1-phosphate leads to a transient increase in intracellular Ca^2+. The Ca^2+ flux assays are measuring the release of Ca^2+ intracellularly by use of a Ca^2+ sensitive fluorescent dye. The assay is firstly run in agonist mode (incubation of compounds alone) to ensure that the Ca^2+ released measured is not caused by the test compound having an agonistic effect. Then the assay is continued in antagonist mode (Sphingosine-1-Phosphate added to incubated medium containing the test compounds).
CHO cells stably overexpressing human GPCR sphingosine 1-phosphate receptor 2 (CHO—S1PR2 Perkin Elmer; ES-594-A) are seeded from a frozen stock in 384 wells sterile microplates (50 μL; 7,500 cells/well) and are incubated overnight at 37° C. and 5% CO2. The next day cells are washed twice with starvation medium (F-12 Ham's medium containing 0.1% BSA (Fatty acid free: FAF)) and left in […] starvation medium for 1 h at 37° C., 5% CO2. After this starvation cells are incubated with […] buffer containing the Ca^2+-sensitive fluorescent dye (0.5 mg Fluo8+125 mg Allura Red in 100 ml of 1% DMSO, in HBSS+20 mM Hepes+5 mM probenecid). The cells are incubated for an additional 1 hour after which 10 μL compounds, diluted in HBSS buffer with 20 mM Hepes and 0.1% BSA (FAF), are added to the cells and intracellular Ca^2+ changes are immediately measured by reading fluorescence during 3 min (FDSS/μCELL reader). The ratio of the maximal fluorescence over the background fluorescence before compound injection is used to determine compound response.
(§3) After readout of the agonist activity, the plates are incubated for 15 min at 37° C. and 5% CO2. Then, cells are stimulated with 10 μL Sphingosine-1-Phosphate (S1P) (Avanti Polar lipids-860492P) at its EC80 concentration. Intracellular Ca^2+ changes are immediately measured by reading fluorescence during 3 min (FDSS/μCELL reader). The ratio of the maximal fluorescence over the background fluorescence before compound injection is used to determine compound response.
(§4) For EC50 determination, a 10 point dilution series of compounds starting from 23.3 μM and 20 μM highest final concentration for agonist and antagonist respectively, ⅓ dilution was performed.
(§5) The obtained ratio's for agonist and antagonist readout were normalized versus vehicle and EC100 of S1P as controls for agonist mode and versus vehicle and EC80 of S1P for antagonist mode. From these normalized data EC50 of the compounds are derived.

[4] = target: T3, human GPCR sphingosine 1-phosphate receptor 5 (S1PR5) (Homo sapiens, UniProt Q9H228); test: S1PR5 selectivity assay (Ca2+ flux, antagonist, S1PR5 specific agonist trigger); assay type: cell-based; conditions: S1P5 antagonist EC50, CHO cells overexpressing human S1PR5 and Gq protein
T3 construct: host or cells: CHO
T3 sequence (Q9H228 whole entry): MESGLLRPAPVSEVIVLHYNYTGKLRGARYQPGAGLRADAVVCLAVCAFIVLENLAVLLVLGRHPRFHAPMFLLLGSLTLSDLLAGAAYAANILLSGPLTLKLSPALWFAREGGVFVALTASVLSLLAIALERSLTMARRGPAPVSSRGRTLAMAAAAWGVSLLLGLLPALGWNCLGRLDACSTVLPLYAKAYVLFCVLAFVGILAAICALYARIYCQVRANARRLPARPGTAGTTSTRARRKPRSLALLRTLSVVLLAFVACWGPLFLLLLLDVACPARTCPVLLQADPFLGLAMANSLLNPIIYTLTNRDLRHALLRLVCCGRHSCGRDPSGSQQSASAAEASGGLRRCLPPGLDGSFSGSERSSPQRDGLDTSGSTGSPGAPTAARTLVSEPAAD
Procedure: as §3, §4, §5
(§6) To evaluate the selectivity of the compounds for S1PR2 over S1PR1 and S1PR5, a similar assay set up as described above for the S1PR2 calcium flux assays was performed: CHO cells stably overexpressing human GPCR sphingosine 1-phosphate receptor 1 and Gq protein (Euroscreen, FAST-0197A) or overexpressing human GPCR sphingosine 1-phosphate receptor 5 and Gq protein were used (Perkin Elmer, ES-593-A). In case of the S1PR5 assay triggering was done with an S1PR5 specific agonist instead of with S1P (Hobson et al., 2015).

[5] = target: T4, human GPCR sphingosine 1-phosphate receptor 1 (S1PR1) (Homo sapiens, UniProt P21453); test: S1PR1 selectivity assay (Ca2+ flux, antagonist); assay type: cell-based; conditions: S1P1 antagonist EC50, CHO cells overexpressing human S1PR1 and Gq protein
T4 construct: host or cells: CHO
T4 sequence (P21453 whole entry): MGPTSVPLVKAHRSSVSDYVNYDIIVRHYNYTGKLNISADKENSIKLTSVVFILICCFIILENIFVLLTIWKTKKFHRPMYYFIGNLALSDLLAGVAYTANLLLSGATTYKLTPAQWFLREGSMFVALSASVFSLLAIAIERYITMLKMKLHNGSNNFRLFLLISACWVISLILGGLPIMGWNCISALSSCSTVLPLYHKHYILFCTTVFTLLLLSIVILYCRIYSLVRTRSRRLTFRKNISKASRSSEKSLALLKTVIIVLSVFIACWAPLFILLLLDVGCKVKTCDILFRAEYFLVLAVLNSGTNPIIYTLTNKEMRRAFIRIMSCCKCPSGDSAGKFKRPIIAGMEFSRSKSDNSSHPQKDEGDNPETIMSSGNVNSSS
Procedure: as §3, §4, §5, §6

Row | Compound | pIC50 (HFL-1 cells [1]) | pEC50 (S1PR2) | pEC50 (HFL-1 cells [2]) | pEC50 [3] | pEC50 [4] | pEC50 [5]
1 | Cc1cc(CNC(=O)Nc2cc(Cl)nc(OCCF)c2)nnc1-c1cn(C)nc1C(F)(F)F [Compound 16, 1-[2-chloro-6-(2-fluoroethoxy)-4-pyridyl]-3-[[5-methyl-6-[1-methyl-3-(trifluoromethyl)pyrazol-4-yl]pyridazin-3-yl]methyl]urea] | 7.13 | 7.20 | 8.34 | 7.97 |  | 
2 | Cc1cc(CNC(=O)Nc2cc(Cl)nc(Cl)c2)nnc1-c1cn(C)nc1C(F)(F)F [Compound 21, 1-(2,6-dichloro-4-pyridyl)-3-[[5-methyl-6-[1-methyl-3-(trifluoromethyl)pyrazol-4-yl]pyridazin-3-yl]methyl]urea] | 6.41 | 6.87 | 7.95 | 7.76 |  | 
3 | Cc1cc(CNC(=O)Nc2cc(OCC3CC(F)(F)C3)nc(C(F)(F)F)c2)nnc1-c1cn(C)nc1C(F)(F)F [Compound 42, 1-[2-[(3,3-difluorocyclo-butyl)methoxy]-6-(trifluoromethyl)-4-pyridyl]-3-[[5-methyl-6-[1-methyl-3-(trifluoromethyl)pyrazol-4-yl]pyridazin-3-yl]methyl]urea] | 5.91 | 6.22 | 7.29 | 6.53 |  | 
4 | CCOc1cc(NC(=O)NCc2cc(C)c(-c3cn(CC(C)O)nc3C(F)(F)F)nn2)cc(C(F)(F)F)n1 (stereo not shown) [Compound 56, 1-[2-ethoxy-6-(trifluoromethyl)-4-pyridyl]-3-[[6-[1-(2-hydroxypropyl)-3-(trifluoromethyl)pyrazol-4-yl]5-methyl-pyridazin-3-yl]methyl]urea] | 7.01 | 6.89 | 8.34 | 7.95 |  | 
5 | Cn1cc(-c2nnc(CNC(=O)Nc3cc(Cl)nc(OCC(F)F)c3)cc2C2CC2)c(C(F)(F)F)n1 [Compound 61, 1-[2-chloro-6-(2,2-difluoroethoxy)-4-pyridyl]-3-[[5-cyclopropyl-6-[1-methyl-3-(trifluoromethyl)pyrazol-4-yl]pyridazin-3-yl]methyl]urea] |  | 6.71 |  | 7.85 | 5.39 | 6.04
6 | Cn1cc(-c2nnc(CNC(=O)Nc3cc(Cl)nc(OCC(F)F)c3)cc2N2CCOCC2)c(C(F)(F)F)n1 [Compound 62, 1-[2-chloro-6-(2,2-difluoroethoxy)-4-pyridyl]-3-[[6-[1-methyl-3-(trifluoromethyl)pyrazol-4-yl]-5-morpholino-pyridazin-3-yl]methyl]urea] |  | 5.63 |  | 5.50 | 4.96 | 6.46
7 | CCOc1cc(NC(=O)NCc2nnc(-c3cn(C)nc3C(F)(F)F)c(C)c2C)cc(C(F)(F)F)n1 [Compound 66, 1-[[4,5-dimethyl-6-[1-methyl-3-(trifluoromethyl)pyrazol-4-yl]pyridazin-3-yl]methyl]-3-[2-ethoxy-6-(trifluoromethyl)-4-pyridyl]urea] | 4.52 |  | 6.00 | 5.37 |  | 
8 | Cc1cc(CNC(=O)Nc2cc(OCC(=O)N(C)C)nc(C(F)(F)F)c2)nnc1-c1cn(C)nc1C(F)(F)F [Compound 67, N,N-dimethyl-2-[[4-[[5-methyl-6-[1-methyl-3-(trifluoromethyl)pyrazol-4-yl]pyridazin-3-yl]methyl-carbamoyla-mino]-6-(trifluoromethyl)-2-pyridyl]oxy]acetamide] | 5.00 | 4.54 | 5.66 |  |  | 
9 | Cc1cn(-c2nnc(CNC(=O)Nc3cc(Cl)nc(OCC(F)F)c3)cc2C)c(C)n1 [Compound 70] |  | 6.04 |  | 6.04 | ≤ 4.70 | ≤ 4.70
10 | CCOc1nc(C)cc(NC(=O)NCc2cc(C)c(-c3cn(C)nc3C(F)(F)F)nn2)c1C#N [Compound 77, 1-(3-cyano-2-ethoxy-6-methyl-4-pyridyl)-3-[[5-methyl-6-[1-methyl-3-(trifluoromethyl)pyrazol-4-yl]pyridazin-3-yl]methyl]urea] | 4.52 | 4.70 | 5.56 |  |  | 
11 | CCOc1cc(NC(=O)NCc2cc(C)c(N3CC(F)(F)C3)nn2)cc(Cl)n1 [Compound 83, 1-(2-Chloro-6-ethoxy-pyridin-4-yl)-3-[6-(3,3-difluoro-azetidin-1-yl)-5-methyl-pyridazin-3-ylmethyl]-urea] | 4.52 | 6.80 | 7.18 | 7.96 |  | 
12 | CCOc1ncc(NC(=O)NCc2cc(C)c(N3CC(C)OC(C)C3)nn2)cc1C(F)(F)F (stereo not shown) [Compound 85, 1-[[6-(2,6-dimethyl-morpholin-4-yl)-5-methyl-pyridazin-3-yl]methyl]-3-[6-ethoxy-5-(trifluoromethyl)-3-pyridyl]urca] | 5.00 | 5.45 | 6.37 | 6.31 |  | 
13 | Cc1cc(CNC(=O)Nc2cc(Cl)nc(OCC(F)F)c2)nnc1N1CCOC(CN(C)C)C1 (stereo not shown) [Compound 97, 1-[2-chloro-6-(2,2-difluoroethoxy)-4-pyridyl]-3-[[6-[2-[(dimethylamino)methyl]morpholin-4-yl]-5-methyl-pyridazin-3-yl]methyl]urea] | 5.75 | 6.56 | 7.21 | 7.09 |  | 
